Test results as given in PubChem BioAssay AID1918932 (Molecular Pharmacology Branch, DTP, NCI, 2023).
pIC50: −log10 of the molar value. Several values for one entry are separate records, joined by “and”; a condition that tells them apart may be missing. Equal entries are not always repeated.

Test system: 171881-019-R-J1-PDC complex spheroid viability
Test: Anticancer human tumor 171881-019-R-J1-PDC patient-derived invasive breast carcinoma cell line growth inhibition
Conditions: for viability, T/C: stronger effect = lower value; active = viability on the fitted dose curve at most 10% of control; inactive = the rest
Excerpt: Multicellular complex tumor spheroid response to LSD1 Inhibitor Iadademstat in combination with a variety of drugs and investigational agents in selected tumor cell lines
The current study was undertaken to assess response to LSD1 inhibitors in combination with standard-of-care drugs and investigational agents in solid tumor complex spheroid models as well as in the K-562 leukemia. Complex spheroids include a stromal component modeled by human endothelial cells (HUVEC) and fibroblasts modeled by human mesenchymal stem cells (MSCs). The concentration ranges selected for each drug and investigational agent were based upon clinically achievable concentrations if the clinical Cmax of the agent was known.
Compounds. The drugs and investigational agents used in this study are listed on Table 1. All of the agents used, including staurosporine (NSC755774) and gemcitabine (NSC613327), were obtained from the Developmental Therapeutics Program, NCI. FDA-approved anticancer drugs are available from the NCI at http://dtp.nci.nih.gov/branches/dscb/oncology_drugset_explanation.html. Drugs and investigational agents were >95% pure by proton nuclear magnetic resonance (NMR) and liquid chromatography/mass spectrometry (LC/MS). Stock solutions were prepared at 400x in DMSO, stored at -70 degrees C, and diluted in fresh medium prior to their use. The final concentration of DMSO in cell culture wells never exceeded 0.25% (v/v). The FDA-approved anticancer drug set is available from the Developmental Therapeutics Program at https://dtp.cancer.gov/organization/dscb/obtaining/available_plates.htm. All drugs and investigational agents were tested over a range starting from a high concentration at or near the clinical Cmax and decreasing in half-log increments. If the clinical Cmax for an agent had not been determined, the highest concentration tested was 10 microM.
Cell Lines. The patient-derived cancer cell (PDC) lines: 292921-168-R-J2-PDC, K24384-001-R-PDC, and 521955-158-R2-J5-PDC pancreatic carcinomas, 556581-035-R-J1 ovarian carcinoma, 324938-238-R-J1-PDC, 855422-203-R-J1-PDC and 883617-216-R-J1-PDC urothelial bladder carcinomas, 743489-274-T-PDC renal cell carcinoma, 138582-R-J1 Merkel cell tumor, K60290-347-R-J1 and K57222-313-R-J1-PDC glioblastomas, 653999-131-R-J2-PDC, LG0703-F948-PDC, and 349418-098-R-PDC non-small cell lung carcinomas, 885512-296-R-J2-PDC, 171881-019-R-J1-PDC breast carcinomas and 186277-243-T-J2-PDC and 233499-124-R-J2-PDC colon carcinomas were obtained from the NCI Patient-Derived Models Repository (PDMR, https://pdmr.cancer.gov). The established cell lines NCI/ADR-RES (RRID:CVCL_14520 and OVCAR-5 (RRID:CVCL_1628) ovarian carcinomas, 786-O (RRID:CVCL_1051) and A498 (RRID:CVCL_A498) renal cell carcinoma, NCI-H211 (ATCC, cat. CRL-5824; RRID:CVCL_1529), NCI-H196 (ATCC, cat. CRL-5823, RRID:CVCL_1509), SW 1271 (ATCC, cat. CRL-2177, RRID:CVCL_1716) and NCI-H1876 (ATCC, cat. CRL-5902, RRID:CVCL_1503) small cell lung carcinomas, MDA-MB-231 (RRID:CVCL_0062) and MDA-MB-468 (RRID:CVCL_0419)breast carcinomas (10-12). Pooled donor human umbilical vein endothelial cells (HUVEC, Lonza, cat. CC-2519) and human mesenchymal stem cells (hMSC, Lonza, cat. PT-2501) were purchased from Lonza (Walkersville, MD).
Cell Culture. All cells were maintained in an incubator at 37 degrees C and 5% CO2 with 95% humidity. The PDC lines were cultured according to standard operating procedures established by the NCI PDMR (https://pdmr.cancer.gov). Briefly all PDCs were thawed and cultured in Matrigel-coated flasks prepared with a working solution of 1X Ham's F-12 nutrient mix, without supplementation (Invitrogen, Waltham, MA, cat. 11765054), 100 U/mL penicillin-streptomycin (Invitrogen, cat. 15140122), and 2.5% Matrigel (Corning Inc., Corning, NY, cat. 354248) for the first three passages. […]

[1] = curve of first compound, second compound 0.1 µM
[2] = curve of first compound, second compound 0.316 µM
[3] = curve of first compound, second compound 1 µM
[4] = curve of first compound, second compound 3.16 µM
[5] = curve of first compound, second compound 10 µM
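Also: spheroids exposed to agents for 7 days after 3 days growth.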

COc1ccc([C@@H](O)c2cc(-c3ncnc4cc(N5CCOCC5)ccc34)c(F)cc2Cl)nn1 + NC1CCC(NC2CC2c2ccccc2)CC1
5.98: pIC50 [4]
active: viability, T/C (second compound 0.1 µM, first compound 3.16 µM) 11.3% | viability, T/C (second compound 0.1 µM, first compound 10 µM) 6.63% | viability, T/C (second compound 0.316 µM, first compound 3.16 µM) 10.6% | viability, T/C (second compound 0.316 µM, first compound 10 µM) 5.9% | viability, T/C (second compound 1 µM, first compound 3.16 µM) 10.4% | viability, T/C (second compound 1 µM, first compound 10 µM) 5.85% | viability, T/C (second compound 3.16 µM, first compound 3.16 µM) 9.78% | viability, T/C (second compound 3.16 µM, first compound 10 µM) 5.03% | viability, T/C (second compound 10 µM, first compound 3.16 µM) 7.96% | viability, T/C (second compound 10 µM, first compound 10 µM) 3.23%
5.92: pIC50 [1]
5.94: pIC50 [2]
5.97: pIC50 [3]
6.02: pIC50 [5]
inactive: viability, T/C (second compound 0.1 µM, first compound 0.0316 µM) 94.6% | viability, T/C (second compound 0.1 µM, first compound 0.1 µM) 107% | viability, T/C (second compound 0.1 µM, first compound 0.316 µM) 106% | viability, T/C (second compound 0.1 µM, first compound 1 µM) 58.3% | viability, T/C (second compound 0.316 µM, first compound 0.0316 µM) 94.8% | viability, T/C (second compound 0.316 µM, first compound 0.1 µM) 104% | viability, T/C (second compound 0.316 µM, first compound 0.316 µM) 112% | viability, T/C (second compound 0.316 µM, first compound 1 µM) 55.7% | viability, T/C (second compound 1 µM, first compound 0.0316 µM) 86.7% | viability, T/C (second compound 1 µM, first compound 0.1 µM) 101% | viability, T/C (second compound 1 µM, first compound 0.316 µM) 109% | viability, T/C (second compound 1 µM, first compound 1 µM) 52.3% | viability, T/C (second compound 3.16 µM, first compound 0.0316 µM) 99.8% | viability, T/C (second compound 3.16 µM, first compound 0.1 µM) 93.6% | viability, T/C (second compound 3.16 µM, first compound 0.316 µM) 107% | viability, T/C (second compound 3.16 µM, first compound 1 µM) 51.3% | viability, T/C (second compound 10 µM, first compound 0.0316 µM) 103% | viability, T/C (second compound 10 µM, first compound 0.1 µM) 115% | viability, T/C (second compound 10 µM, first compound 0.316 µM) 108% | viability, T/C (second compound 10 µM, first compound 1 µM) 47.6%

CC[C@@]1(O)C(=O)OCc2c1cc1n(c2=O)Cc2cc3c(CN(C)C)c(O)ccc3nc2-1
inactive: viability, T/C (compound 0.000316 µM) 90.9% and 99.1% | viability, T/C (compound 0.001 µM) 116% and 105% | viability, T/C (compound 0.00316 µM) 129% and 84.4% | viability, T/C (compound 0.01 µM) 64.3% and 70.4% | viability, T/C (compound 0.0316 µM) 67.5% and 66% | viability, T/C (compound 0.1 µM) 46.6% and 37.6%
< 7.00 and 7.26: pIC50 (curve of compound)

Nc1ncn(C2CC(O)C(CO)S2)c(=O)n1 (stereo unspecified)
inactive: viability, T/C (compound 0.000949 µM) 95.1% and 102% | viability, T/C (compound 0.003 µM) 98% and 105% | viability, T/C (compound 0.00949 µM) 136% and 94.5% | viability, T/C (compound 0.03 µM) 124% and 76.7% | viability, T/C (compound 0.0949 µM) 73% and 53.8% | viability, T/C (compound 0.3 µM) 38% and 34.8%
6.69 and 6.94: pIC50 (curve of compound)

O=C(C=Cc1cccc(S(=O)(=O)Nc2ccccc2)c1)NO + NC1CC1c1ccc(-c2cccc(O)c2)cc1
6.39: pIC50 [2]
6.51: pIC50 [5]
6.42: pIC50 [1]
inactive: viability, T/C (second compound 0.1 µM, first compound 0.00949 µM) 99.8% | viability, T/C (second compound 0.1 µM, first compound 0.03 µM) 104% | viability, T/C (second compound 0.1 µM, first compound 0.0949 µM) 102% | viability, T/C (second compound 0.1 µM, first compound 0.3 µM) 63.1% | viability, T/C (second compound 0.316 µM, first compound 0.00949 µM) 100% | viability, T/C (second compound 0.316 µM, first compound 0.03 µM) 98.5% | viability, T/C (second compound 0.316 µM, first compound 0.0949 µM) 100% | viability, T/C (second compound 0.316 µM, first compound 0.3 µM) 67% | viability, T/C (second compound 1 µM, first compound 0.00949 µM) 104% | viability, T/C (second compound 1 µM, first compound 0.03 µM) 103% | viability, T/C (second compound 1 µM, first compound 0.0949 µM) 103% | viability, T/C (second compound 1 µM, first compound 0.3 µM) 69.9% | viability, T/C (second compound 3.16 µM, first compound 0.00949 µM) 92% | viability, T/C (second compound 3.16 µM, first compound 0.03 µM) 89.5% | viability, T/C (second compound 3.16 µM, first compound 0.0949 µM) 97.2% | viability, T/C (second compound 3.16 µM, first compound 0.3 µM) 64.3% | viability, T/C (second compound 10 µM, first compound 0.00949 µM) 77% | viability, T/C (second compound 10 µM, first compound 0.03 µM) 73.5% | viability, T/C (second compound 10 µM, first compound 0.0949 µM) 85.6% | viability, T/C (second compound 10 µM, first compound 0.3 µM) 51.4%
6.38: pIC50 [3]
6.41: pIC50 [4]
active: viability, T/C (second compound 0.1 µM, first compound 0.949 µM) 1.03% | viability, T/C (second compound 0.1 µM, first compound 3 µM) 0.11% | viability, T/C (second compound 0.316 µM, first compound 0.949 µM) 1.15% | viability, T/C (second compound 0.316 µM, first compound 3 µM) 0.13% | viability, T/C (second compound 1 µM, first compound 0.949 µM) 1.32% | viability, T/C (second compound 1 µM, first compound 3 µM) 0.23% | viability, T/C (second compound 3.16 µM, first compound 0.949 µM) 1.09% | viability, T/C (second compound 3.16 µM, first compound 3 µM) 0.11% | viability, T/C (second compound 10 µM, first compound 0.949 µM) 0.76% | viability, T/C (second compound 10 µM, first compound 3 µM) 0.14%

CC(C)CC(NC(=O)CNC(=O)c1cc(Cl)ccc1Cl)B1OC(=O)CC(CC(=O)O)(C(=O)O)O1 (stereo unspecified)
8.52 and 8.92: pIC50 (curve of compound)
inactive: viability, T/C (compound 0.000316 µM) 91.2% and 75.3% | viability, T/C (compound 0.001 µM) 105% and 52.1% | viability, T/C (compound 0.00316 µM) 48% and 33.7%
3.28% and 13.3%: viability, T/C (compound 0.0316 µM)
0.97% and 15.7%: viability, T/C (compound 0.1 µM)
12.6% and 17.4%: viability, T/C (compound 0.01 µM)
